Source: PMC10485894, “Corticosteroids as Selective and Effective Modulators of Glycine Receptors” (ACS Chemical Neuroscience, 2023)
Where two headings read alike, the source gives them in different places.

Legend:
[1] = test system: GABA-A receptors (GABAAR); test: GABA-activated chloride current (IGABA), whole-cell patch clamp in isolated cerebellar Purkinje cells
Protocol: (§1) First, the ability of steroids to affect the holding current at the voltage-clamp regime was tested. […] Next, the influence of all of the compounds on IGABA and IGly was evaluated. […] The latter effect was quantified by the change in the time constant of the IGly decay (IGly τdes).
(§2) The cells were isolated from rat brain slices as described in detail elsewhere.[47] Briefly, the slices (200–500 μm) of Wistar rat (11–14 days of age) hippocampus or cerebellum were incubated at room temperature for at least 2 h in a solution containing the following components (in mM): 124 NaCl, 3 KCl, 2 CaCl2, 2 MgSO4, 25 NaHCO3, 1.3 NaH2PO4, and 10 D-glucose, pH 7.4. The saline was continuously stirred and bubbled with carbogen (95% O2 + 5% CO2). Single pyramidal neurons from the hippocampal CA3 area or Purkinje cells from sagittal slices of the cerebellum were isolated by a vibrating fused glass pipet with a spherical tip.
(§3) Transmembrane currents were recorded using a conventional patch-clamp technique in the whole-cell configuration. […] The solution in the recording pipet contained the following (in mM): 40 CsF, 100 CsCl, 0.5 CaCl2, 5 EGTA, 3 MgCl2, 4 NaATP, 5 HEPES, pH 7.3. The composition of the extracellular solution was as follows (in mM): 140 NaCl, 3 KCl, 3 CaCl2, 3 MgCl2, 10 D-glucose, 10 HEPES hemisodium, pH 7.4. The speed of perfusion was 0.6 mL/min. Recording of the currents was performed using an EPC7 patch-clamp amplifier (HEKA Elektronik, Germany). The holding potential was maintained at −70 mV. Transmembrane currents were filtered at 3 kHz, stored, and analyzed with IBM-PC computer, using homemade software.
(§4) Statistical analysis was performed with Prism Graphpad software. […] N = 6–8 cells from 3 animals for every average value. […] The EC50 value for steroid potentiation of the IGABA was determined using the equation: Y = Bottom + (Top – Bottom)/[1 + (EC50/C)^n], where Bottom and Top are current amplitudes measured in the control solution and in the presence of steroid, respectively, C is the concentration of steroid, EC50 is the half-maximal stimulating concentration, and n is the slope factor (Hill coefficient).

glycine receptors (GlyR) = test: Glycine-activated chloride current (IGly), whole-cell patch clamp in isolated hippocampal pyramidal neurons; conditions: for Ipeak max (maximum inhibition attainable) / IC50 / τdes max (maximum inhibition attainable) / normalized charge (Q) of IGly, maximum inhibition (max): 100 μM glycine; for Ipeak max (maximum inhibition attainable) / τdes max (maximum inhibition attainable) / normalized charge (Q) of IGly, maximum inhibition (max): fraction; for IGly peak, effect at 10 μM / IGly τdes, effect at 10 μM: steroid 10 μM coapplied with 100 μM glycine; for IGly peak, effect at 10 μM: hippocampal neurons; for IGly τdes, effect at 10 μM: time constant of IGly decay; for τdes max (maximum inhibition attainable): time constant of desensitization of IGly;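 for all read-outs here: rat CA3 hippocampal pyramidal cells, whole-cell voltage clamp held at −70 mV, steroids tested over 0.01–100 µM, 6–8 cells from 3 animals per mean value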
Protocol: as §1, §2, §3, §4

[2] = read-out: Ipeak IC50, peak amplitude of IGly
[3] = read-out: τdes IC50, acceleration of IGly desensitization
[4] = read-out: normalized charge (Q) of IGly, IC50, area under the IGly curve
[5] = steroid 10 μM coapplied with GABA (2 or 5 μM), Purkinje cells

Row | Structure (SMILES) | Ipeak max (maximum inhibition attainable) (glycine receptors (GlyR); peak amplitude of IGly) | IC50 (glycine receptors (GlyR); [2]) [µM] | IC50 (glycine receptors (GlyR); [3]) [µM] | IGly peak, effect at 10 μM (glycine receptors (GlyR)) | IGly τdes, effect at 10 μM (glycine receptors (GlyR)) [%] | τdes max (maximum inhibition attainable) (glycine receptors (GlyR)) | IGABA peak, effect at 10 μM [1] | IGABA peak, effect at 10 μM [1, 5] | other results
1 | C[C@]12CC[C@@H](O)C[C@@H]1CC[C@@H]1[C@@H]2[C@@H](O)C[C@]2(C)[C@@H](C(=O)CO)CC[C@@H]12 [3α5α-CORT, 3α,11β,21-Trihydroxy-5α-pregnan-20-one] | 0.51 ± 0.1 | 11.8 ± 5.7 | 0.72 ± 0.03 | -26% | -54 | 0.59 ± 0.08 | – | – | IGABA, % of control [1]: 120 ± 16 % of control; effect on maximal GABA current [1]: did not change; maximum effect (max) on IGABA [1]: 420 ± 19 % of the control; potentiating effect on IGABA at higher GABA concentrations [1]: not observed; threshold concentration for potentiation of IGABA ([1]; 2 μM GABA): 5 µM; IGABA peak amplitude, % of control ([1]; 5 μM steroid, 2 μM GABA): 150 ± 8 % of the control; IGABA, % of control ([1]; 50 μM steroid, 2 μM GABA): 371 ± 16 % of control; IGABA, % of control ([1]; 50 μM steroid, 5 μM GABA): 156 ± 15 % of control
2 | C[C@]12CC[C@@H](O)C[C@H]1CC[C@@H]1[C@@H]2[C@@H](O)C[C@]2(C)[C@@H](C(=O)CO)CC[C@@H]12 [3α5β-CORT, 3α,11β,21-Trihydroxy-5β-pregnan-20-one] | 0.44 ± 0.1 | 23 ± 9.6 | 15.2 ± 6.2 | No effect | -24 | 0.56 ± 0.08 | – | – | IGABA peak amplitude, % of control [1]: 133 ± 8 % of the control; effect on maximal GABA current [1]: did not change; maximum effect (max) on IGABA [1]: 198 ± 11 % of the control; threshold concentration for potentiation of IGABA ([1]; 2 μM GABA): 10 µM; IGABA, % of control ([1]; 50 μM steroid, 2 μM GABA): 172 ± 18 % of control; IGABA, % of control ([1]; 50 μM steroid, 5 μM GABA): 139 ± 16 % of control
3 | C[C@]12CCC(=O)C[C@@H]1CC[C@@H]1[C@@H]2CC[C@]2(C)[C@@H](C(=O)CO)CC[C@@H]12 [5α-CORT, 21-Hydroxy-5α-pregnane-3,20-dione] | 0.86 ± 0.2 | 32 ± 12.6 | 0.71 ± 0.02 | No effect | -36 | 0.37 ± 0.04 | No effect | – | –
4 | C[C@]12CCC(=O)C[C@H]1CC[C@@H]1[C@@H]2CC[C@]2(C)[C@@H](C(=O)CO)CC[C@@H]12 [5β-CORT, 21-Hydroxy-5β-pregnane-3,20-dione] | 0.85 ± 0.3 | 29.3 ± 9.9 | 13.1 ± 5.8 | No effect | -27 | 0.61 ± 0.09 | No effect | – | normalized charge (Q) of IGly, maximum inhibition (max) (glycine receptors (GlyR); area under the IGly curve): 0.96 ± 0.15; IC50 (glycine receptors (GlyR); [4]): 37 ± 13 µM
5 | C[C@]12CCC(=O)C=C1CC[C@@H]1[C@@H]2CC[C@@]2(C)[C@H]1CC[C@]2(O)C(=O)CO [11-Deoxycortisol, 17α,21-Dihydroxypregn-4-ene-3,20-dione] | 0.69 ± 0.2 | 21.4 ± 7.6 | 13.8 ± 6.3 | -26% | -21 | 0.50 ± 0.08 | – | No effect | amplitude of IGABA, % of control (inhibition) ([1]; 100 μM steroid, 5 μM GABA): 58 ± 5 % of the control
6 | C[C@]12CC[C@H]3[C@@H](CCC4=CC(=O)CC[C@@]43C)[C@@H]1CC[C@@H]2C(=O)CO [11-deoxy-CORT, 21-Hydroxypregn-4-ene-3,20-dione] | 0.67 ± 0.2 | 22.9 ± 9.4 | 12.2 ± 3.7 | No effect | -32 | 0.72 ± 0.08 | No effect | – | amplitude of IGABA, % of control (inhibition) [1]: 70 ± 3 % of the control; effect on IGly at low glycine (glycine receptors (GlyR); 1 μM steroid, 25 μM glycine (EC10)): did not affect; decrease in the peak amplitude of IGly (glycine receptors (GlyR); 50 μM steroid, 25 μM glycine (EC10)): 45 ± 7%
7 | C[C@]12CC[C@H](O)CC1=CCC1C2CC[C@@]2(C)C1CC[C@]2(O)C(=O)CO (stereo partly drawn) [17α,21-diOH-PREG, 3β,17α,21-Trihydroxypregn-5-en-20-one] | 0.45 ± 0.1 | 7.2 ± 2.6 | 0.39 ± 0.05 | -27% | -76 | 0.77 ± 0.03 | No effect | – | normalized charge (Q) of IGly, maximum inhibition (max) (glycine receptors (GlyR); area under the IGly curve): 0.52 ± 0.01; IC50 (glycine receptors (GlyR); [4]): 0.73 ± 0.06 µM
8 | C[C@]12C[C@H](O)[C@H]3[C@@H](CCC4=CC(=O)CC[C@@]43C)[C@@H]1CC[C@@H]2C(=O)CO [CORT, 11β,21-Dihydroxypregn-4-ene-3,20-dion] | 0.54 ± 0.1 | 12.6 ± 4.8 | 0.43 ± 0.05 | -26% | -64 | 0.64 ± 0.02 | – | No effect | –
9 | C[C@]12CCC(=O)C=C1CC[C@@H]1[C@@H]2[C@@H](O)C[C@@]2(C)[C@H]1CC[C@]2(O)C(=O)CO [Cortisol, 11β,17α,21-Trihydroxypregn-4-ene-3,20-dione] | 0.49 ± 0.1 | 20.2 ± 9.8 | 0.63 ± 0.02 | -23% | -40 | 0.42 ± 0.05 | – | No effect | –
10 | C[C@]12CCC(=O)C=C1CC[C@@H]1[C@@H]2C(=O)C[C@@]2(C)[C@H]1CC[C@]2(O)C(=O)CO [Cortisone, 17α,21-Dihydroxypregn-4-ene-3,11,20-trione] | 0.57 ± 0.1 | 13.6 ± 5.5 | 10.3 ± 3.4 | -25% | -24 | 0.48 ± 0.06 | – | No effect | –
11 | CN1CCc2cc3c(cc2[C@H]1[C@@H]1OC(=O)c2c1ccc1c2OCO1)OCO3 [bicuculline] | – | – | – | – | – | – | – | – | effect on IGABA [1]: reversibly blocked
12 | NCC(=O)O [glycine] | – | – | – | – | – | – | – | – | EC50 (glycine receptors (GlyR); read-out: EC50 of glycine for IGly, 600–1000 ms application): 90 ± 7 µM
